# Test results as given in US20250320213A1, “Nitrogen-Containing Heterocyclic Compounds” (Pfizer Inc., priority 2024, published 2025).
# Where two headings read alike, the source gives them in different places.
# Molecular target: T1, STAT6 (Homo sapiens, UniProt P42226)
# T1 construct: stably transfected HaCaT keratinocyte cell line, which expresses NanoLuc luciferase reporter gene under the transcriptional control of the STAT6 responsive promoter; endogenous in cells; host or cells: HaCaT keratinocyte reporter cell line (stably transfected with a NanoLuc reporter)
# T1 sequence (P42226 1-847): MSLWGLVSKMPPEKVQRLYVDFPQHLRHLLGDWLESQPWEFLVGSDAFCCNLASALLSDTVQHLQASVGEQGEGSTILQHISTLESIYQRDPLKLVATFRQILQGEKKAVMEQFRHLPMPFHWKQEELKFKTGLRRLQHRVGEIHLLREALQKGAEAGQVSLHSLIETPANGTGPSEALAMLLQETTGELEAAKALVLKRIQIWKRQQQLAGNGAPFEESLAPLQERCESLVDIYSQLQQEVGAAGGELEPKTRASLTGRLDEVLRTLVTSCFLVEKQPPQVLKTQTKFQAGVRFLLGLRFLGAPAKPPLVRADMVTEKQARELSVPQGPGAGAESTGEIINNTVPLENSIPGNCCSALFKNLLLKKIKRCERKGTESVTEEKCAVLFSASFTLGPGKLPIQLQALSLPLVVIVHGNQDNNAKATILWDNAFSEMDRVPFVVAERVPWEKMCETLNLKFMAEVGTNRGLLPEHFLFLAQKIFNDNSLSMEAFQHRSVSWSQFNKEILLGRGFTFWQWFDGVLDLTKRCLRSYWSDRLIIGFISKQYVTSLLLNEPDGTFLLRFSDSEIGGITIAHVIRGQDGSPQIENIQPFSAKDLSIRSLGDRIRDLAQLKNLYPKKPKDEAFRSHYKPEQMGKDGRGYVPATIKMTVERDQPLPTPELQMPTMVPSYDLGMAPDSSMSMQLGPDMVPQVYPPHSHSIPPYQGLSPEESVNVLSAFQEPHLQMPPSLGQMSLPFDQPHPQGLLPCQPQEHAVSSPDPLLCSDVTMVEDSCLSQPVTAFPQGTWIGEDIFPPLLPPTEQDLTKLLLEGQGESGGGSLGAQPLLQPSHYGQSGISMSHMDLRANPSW
# Experiment: STAT6 Reporter Luciferase Assay (IL-13 stimulated HaCaT keratinocyte NanoLuc reporter cells)
# Format: cell-based
# Settings: read-out: Reporter EC50
# Experimental: Pharmacological measurements of STAT6 transcriptional activity through the IL-13-IL-13 receptor/IL-4 receptor pathway were made with a stably transfected HaCaT keratinocyte cell line, which expresses NanoLuc luciferase reporter gene under the transcriptional control of the STAT6 responsive promoter for IL-13Ra2. The readout of the STAT6 activity utilized Promega Nano-Glo Luciferase assay kit.
# The reporter cells were cultured in a growth media comprised of DMEM High Glucose, no calcium and no glutamine, 10% heat inactivated fetal bovine serum (HI FBS), 1% 100× Glutamax, and 100 U/mL Penicillin-Streptomycin (units of penicillin in 1 mL of streptomycin). Seven thousand cells were plated in 25 microliter (μL) per well in a 384-well, white bottom, tissue culture plate. Cells were cultured overnight at 37° C. The next day, test compounds (solubilized and serially diluted in DMSO, in an 11 point, 4-fold dilution series in duplicate) were spotted, 60 nanoliters (nL) per well, into a 384 well v-bottom polypropylene plate. Thirty μL per well of 37° C. dosing media (Dulbecco's modified eagle medium (DMEM) High Glucose, no calcium and no glutamine with 2% HI FBS) was added to the compound plate. Growth media was removed from the cell plate, and the cells were washed with DPBS. Twenty μL per well of compounds diluted in dosing media were transferred from the compound plate to the cell plate and the compounds were further diluted with an additional 15 μL of dosing media in the cell plate: the cell plate was incubated for two hours at 37° C. After two hours, STAT6 activity was stimulated with the addition of 5 μL per well of IL-13 (R&D Systems) in dosing media with a final concentration of 0.12 nM IL13. Cells were incubated at 37° C. for 4 hours to allow for reporter gene expression, then all media was removed from the plate. The cell plates were treated with assay buffer and Luciferase substrate from Nano-Glo Luciferase Assay Kit for 15 min and then measured for luminescence on an EnVision 2105 multilabel reader (PerkinElmer).
# [1] = IL-13 stimulated HaCaT STAT6 NanoLuc reporter cells
Structure (SMILES),EC50 [1] [nM],"EC50 (STAT6 NanoLuc luciferase reporter, IL-13 stimulated HaCaT keratinocyte cells) [nM]"
"CCn1nc(C(=O)NCc2ccc(NC(=O)N3CCN(C)CC3)cc2)c2c1C(C(F)(F)F)CN(c1ccc(C(=O)N(C)C)cn1)C2 (single isomer, unassigned) [Example 695, rel-(R or S)-5-(5-(dimethylcarbamoyl)pyridin-2-yl)-1-ethyl-N-(4-(4-methylpiperazine-1-carboxamido)benzyl)-7-(trifluoromethyl)-4,5,6,7-tetrahydro-1H-pyrazolo[4,3-c]pyridine-3-carboxamide]",32,–
"CC(C)n1nc(C(=O)NCc2ccc(NC(=O)N3CCN(CCC(=O)O)CC3)c(F)c2)c2c1[C@@H](C)CN(c1ccc(C(=O)N(C)C)cc1)C2 [Example 669, (S)-3-(4-((4-((5-(4-(dimethylcarbamoyl)phenyl)-1-isopropyl-7-methyl-4,5,6,7-tetrahydro-1H-pyrazolo[4,3-c]pyridine-3-carboxamido)methyl)-2-fluorophenyl)carbamoyl)piperazin-1-yl)propanoic acid]",201,–
"CC(C)n1nc(C(=O)NCc2ccc(NC(=O)N(C)C)cc2)c2c1CCN(c1ccc(C(=O)N3CCc4cc(C#N)ccc4C3)cn1)C2 [Example 436, 5-(5-(6-cyano-1,2,3,4-tetrahydroisoquinoline-2-carbonyl)pyridin-2-yl)-N-(4-(3,3-dimethylureido)benzyl)-1-isopropyl-4,5,6,7-tetrahydro-1H-pyrazolo[4,3-c]pyridine-3-carboxamide]",22,–
"CC(C)n1nc(C(=O)NCc2ccc(NC(=O)N3CCC4(CC3)CN(C)CCO4)cc2)c2c1[C@@H](C)CN(c1ccc(C(=O)N(C)C)cc1)C2 [Example 738, (S)-N-(4-((5-(4-(dimethylcarbamoyl)phenyl)-1-isopropyl-7-methyl-4,5,6,7-tetrahydro-1H-pyrazolo[4,3-c]pyridine-3-carboxamido)methyl)phenyl)-4-methyl-1-oxa-4,9-diazaspiro[5.5]undecane-9-carboxamide]",1,–
"CC(C)n1nc(C(=O)NCc2ccc(NC(=O)N(C)C)cc2)c2c1CCN(c1ccc(C(=O)N3CCc4nn(C)cc4C3)cn1)C2 [Example 364, N-(4-(3,3-dimethylureido)benzyl)-1-isopropyl-5-(5-(2-methyl-4,5,6,7-tetrahydro-2H-pyrazolo[4,3-c]pyridine-5-carbonyl)pyridin-2-yl)-4,5,6,7-tetrahydro-1H-pyrazolo[4,3-c]pyridine-3-carboxamide]",20,–
"CC(C)n1nc(C(=O)NCc2ccc(NC(=O)N3CCC(CC#N)CC3)cc2)c2c1CCN(c1ccc(C(=O)N(C)C)cn1)C2 [Example 149, N-(4-(4-(cyanomethyl)piperidine-1-carboxamido)benzyl)-5-(5-(dimethylcarbamoyl)pyridin-2-yl)-1-isopropyl-4,5,6,7-tetrahydro-1H-pyrazolo[4,3-c]pyridine-3-carboxamide]",–,5
"CC(C)n1nc(C(=O)NCc2ccc(NC(=O)N3CC[C@H](CN(C)C)C3)c(F)c2)c2c1[C@@H](C)CN(c1ccc(C(=O)N(C)C)cc1)C2 [Example 684, (S)-N-(4-((R)-3-((dimethylamino)methyl)pyrrolidine-1-carboxamido)-3-fluorobenzyl)-5-(4-(dimethylcarbamoyl)phenyl)-1-isopropyl-7-methyl-4,5,6,7-tetrahydro-1H-pyrazolo[4,3-c]pyridine-3-carboxamide]",2,–
"CC(C)n1nc(C(=O)NCc2ccc(NC(=O)N(C)C)cc2)c2c1CCN(c1ccc(C(=O)N3CCc4ncsc4C3)cn1)C2 [Example 374, N-(4-(3,3-dimethylureido)benzyl)-1-isopropyl-5-(5-(4,5,6,7-tetrahydrothiazolo[5,4-c]pyridine-5-carbonyl)pyridin-2-yl)-4,5,6,7-tetrahydro-1H-pyrazolo[4,3-c]pyridine-3-carboxamide]",14,–
"CCOC1CN(C(=O)c2ccc(N3CCc4c(c(C(=O)NCc5ccc(NC(=O)N(C)C)cc5)nn4C(C)C)C3)nc2)C1 [Example 242, N-(4-(3,3-dimethylureido)benzyl)-5-(5-(3-ethoxyazetidine-1-carbonyl)pyridin-2-yl)-1-isopropyl-4,5,6,7-tetrahydro-1H-pyrazolo[4,3-c]pyridine-3-carboxamide]",352,–
"CC(C)n1nc(C(=O)NCc2ccc(NC(=O)N3CCN(C)CC3)cc2)c2c1[C@@H](C)CN(c1ccc(-c3nccn3C(F)F)cn1)C2 [Example 654, (S)-5-(5-(1-(difluoromethyl)-1H-imidazol-2-yl)pyridin-2-yl)-1-isopropyl-7-methyl-N-(4-(4-methylpiperazine-1-carboxamido)benzyl)-4,5,6,7-tetrahydro-1H-pyrazolo[4,3-c]pyridine-3-carboxamide]",2,–
"CC(C)n1nc(C(=O)NCc2ccc(NC(=O)N3CCC4(CC3)CCN4C)cc2)c2c1[C@@H](C)CN(c1ccc(C(=O)N(C)C)cc1)C2 [Example 740, (S)-5-(4-(dimethylcarbamoyl)phenyl)-1-isopropyl-7-methyl-N-(4-(1-methyl-1,7-diazaspiro[3.5]nonane-7-carboxamido)benzyl)-4,5,6,7-tetrahydro-1H-pyrazolo[4,3-c]pyridine-3-carboxamide]",2,–
"CCn1nc2c(c1C(=O)NCc1ccc(NC(=O)N(C)C)cc1)CN(c1ccc(C(=O)N(C)C)cn1)[C@H](C)[C@H]2C (stereo in doubt) [Example 317, rel-(6R,7R)-5-(5-(dimethylcarbamoyl)pyridin-2-yl)-N-(4-(3,3-dimethylureido)benzyl)-2-ethyl-6,7-dimethyl-4,5,6,7-tetrahydro-2H-pyrazolo[4,3-c]pyridine-3-carboxamide]",355,–
"CC(C)n1nc(C(=O)NCc2ccc(NC(=O)N(C)C)cc2)c2c1CCN(c1ccc(C(=O)N3CCc4c(cnn4C)C3)cn1)C2 [Example 416, N-(4-(3,3-dimethylureido)benzyl)-1-isopropyl-5-(5-(1-methyl-4,5,6,7-tetrahydro-1H-pyrazolo[4,3-c]pyridine-5-carbonyl)pyridin-2-yl)-4,5,6,7-tetrahydro-1H-pyrazolo[4,3-c]pyridine-3-carboxamide]",29,–
"CC(C)n1nc(C(=O)NCc2ccc(NC(=O)N3CC(N(C)C)C3)cc2)c2c1[C@@H](C)CN(c1ccc(C(=O)N(C)C)cc1)C2 [Example 746, (S)-N-(4-(3-(dimethylamino)azetidine-1-carboxamido)benzyl)-5-(4-(dimethylcarbamoyl)phenyl)-1-isopropyl-7-methyl-4,5,6,7-tetrahydro-1H-pyrazolo[4,3-c]pyridine-3-carboxamide]",1,–
"CCN1CCN(C(=O)Nc2ccc(CNC(=O)c3nn(C(C)C)c4c3CN(c3ccc(C(=O)N(C)C)cc3)C[C@@H]4C)cc2)CC1 [Example 745, (S)-5-(4-(dimethylcarbamoyl)phenyl)-N-(4-(4-ethylpiperazine-1-carboxamido)benzyl)-1-isopropyl-7-methyl-4,5,6,7-tetrahydro-1H-pyrazolo[4,3-c]pyridine-3-carboxamide]",1,–
"CC(=O)NC1(C)CN(C(=O)c2ccc(N3CCc4c(c(C(=O)NCc5ccc(NC(=O)N(C)C)cc5)nn4C(C)C)C3)nc2)C1 [Example 330, 5-(5-(3-acetamido-3-methylazetidine-1-carbonyl)pyridin-2-yl)-N-(4-(3,3-dimethylureido)benzyl)-1-isopropyl-4,5,6,7-tetrahydro-1H-pyrazolo[4,3-c]pyridine-3-carboxamide]",1980,–
